According to patent publication US9730914B2, “3,5-diaminopyrazole kinase inhibitors” (Axikin Pharmaceuticals, Inc., priority 2014, dated 2017):

Experiments:
[1] = target: T1, JAK2 (Homo sapiens, UniProt O60674); experiment: Kinase competition binding assay (Kd, qPCR readout), JAK2; settings: for Kd: Kd class, JAK2, read-out: JAK2 Activity Level; for RCK:JAK2 selectivity ratio: ratio Kd (JAK2): Kd(RCK)
T1 construct: made in house; host or cells: E. coli BL21-derived host (T7 phage) or HEK-293
How it was run: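 Competition binding: DNA-tagged kinase (T7 phage or HEK-293-expressed), immobilized biotinylated ligand beads and compound in SeaBlock/PBS/Tween/DTT buffer, 1 hour at room temperature; bound kinase eluted and quantified by qPCR. Kd from 11-point 3-fold dilution, top 30,000 nM typically, final DMSO 1%.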

[2] = target: T2, kinase domain protein of RC kinase (RCK) (Homo sapiens, UniProt Q56UN5); experiment: Kinase competition binding assay (Kd, qPCR readout), RC kinase; settings: Kd class, read-out: RCK Activity Level
T2 construct: made in house; host or cells: E. coli BL21-derived host (T7 phage) or HEK-293
T2 sequence (Q56UN5 1061-1324 limits assumed): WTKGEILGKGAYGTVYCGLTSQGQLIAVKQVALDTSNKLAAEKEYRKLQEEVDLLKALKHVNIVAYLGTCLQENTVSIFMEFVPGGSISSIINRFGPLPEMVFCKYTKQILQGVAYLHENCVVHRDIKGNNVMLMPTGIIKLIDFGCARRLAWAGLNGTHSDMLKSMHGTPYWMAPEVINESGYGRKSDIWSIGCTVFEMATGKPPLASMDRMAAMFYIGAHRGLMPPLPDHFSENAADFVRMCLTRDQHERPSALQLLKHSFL
How it was run: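 Competition binding: DNA-tagged kinase (T7 phage or HEK-293-expressed) plus immobilized biotinylated ligand beads and compound, 1 h at room temperature, 1% DMSO. Bead-bound kinase eluted and quantified by qPCR. Kd from 11-point 3-fold dilution, top 30,000 nM, retested lower if below 0.5 nM.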

[3] = target: T3, JAK3 (Homo sapiens, UniProt P52333); experiment: Kinase competition binding assay (Kd, qPCR readout), JAK3; settings: for Kd: Kd class, JAK3, read-out: JAK3 Activity Level; for RCK:JAK3 selectivity ratio: ratio Kd (JAK3): Kd (RCK)
T3 construct: made in house; host or cells: E. coli BL21-derived host (T7 phage) or HEK-293
T3 sequence (P52333 811-1124 limits assumed): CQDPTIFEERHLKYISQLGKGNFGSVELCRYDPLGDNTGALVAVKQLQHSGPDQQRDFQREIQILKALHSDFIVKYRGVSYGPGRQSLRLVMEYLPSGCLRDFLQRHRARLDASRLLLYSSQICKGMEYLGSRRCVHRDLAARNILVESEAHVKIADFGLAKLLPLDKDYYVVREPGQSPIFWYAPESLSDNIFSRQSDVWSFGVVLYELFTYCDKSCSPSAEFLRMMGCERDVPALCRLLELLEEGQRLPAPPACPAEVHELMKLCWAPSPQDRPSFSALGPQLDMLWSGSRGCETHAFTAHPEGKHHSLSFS
How it was run: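 Competition binding in which kinase, either T7 phage-tagged or HEK-293-expressed and DNA-tagged, was exposed to immobilized biotinylated ligand and test compound for 1 h at room temperature. Bead-bound kinase was eluted and quantified by qPCR. Kd came from 11-point 3-fold dilutions, top concentration 30,000 nM and 1% DMSO, repeated lower if below 0.5 nM.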

T1 sequence (O60674 840-1132 limits assumed): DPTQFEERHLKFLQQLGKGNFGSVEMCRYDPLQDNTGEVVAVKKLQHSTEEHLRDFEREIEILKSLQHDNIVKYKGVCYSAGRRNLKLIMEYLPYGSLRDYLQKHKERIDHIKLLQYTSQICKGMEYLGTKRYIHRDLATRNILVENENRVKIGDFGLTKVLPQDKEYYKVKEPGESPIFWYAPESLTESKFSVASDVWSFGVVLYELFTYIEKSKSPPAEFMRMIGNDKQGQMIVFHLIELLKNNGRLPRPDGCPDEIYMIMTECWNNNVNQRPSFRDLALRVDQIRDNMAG

Compound | Kd [1] [nM] | RCK:JAK2 selectivity ratio [1] | Kd [2] [nM] | Kd [3] [nM] | RCK:JAK3 selectivity ratio [3]
Cc1cc(CNc2[nH]nc(Nc3ccc(N4CCN(C(=O)N5CCCC5)CC4)cc3)c2C(N)=O)cc(C)c1O [Compound 24, 5-((4-hydroxy-3,5-dimethylbenzyl)amino)-3-((4-(4-(pyrrolidine-1-carbonyl)piperazin-1-yl)phenyl)amino)-1H-pyrazole-4-carboxamide] | > 1000 | B (B represents 10<Kd(JAK2): Kd (RCK)<100) | < 50 | > 1000 | A (A represents Kd (JAK3): Kd (RCK)>100)
Cc1cc(CNc2[nH]nc(Nc3ccc(CN4CCCCC4)cc3)c2C(N)=O)cc(C)c1O [Compound 45, 5-((4-hydroxy-3,5-dimethylbenzyl)amino)-3-((4-(piperidin-1-ylmethyl)phenyl)amino)-1H-pyrazole-4-carboxamide] | 100 to 1000 | C (C represents 1<Kd (JAK2): Kd (RCK)<10) | < 50 | 100 to 1000 | B (B represents 10<Kd (JAK3): Kd (RCK)<100)
CC1CCN(C2CCN(c3ccc(Nc4n[nH]c(NCc5ccc(O)cc5)c4C(N)=O)cc3)CC2)CC1 [reference compound] | < 50 | C (C represents 1<Kd (JAK2): Kd (RCK)<10) | < 50 | < 50 | D (D represents Kd (JAK3): Kd(RCK)<1)
COc1cccc(C(=O)Nc2ccc(Nc3n[nH]c(NCc4cc(C)c(O)c(C)c4)c3C(N)=O)cc2)c1 [Compound 56, 5-((4-hydroxy-3,5-dimethylbenzyl)amino)-3-((4-(3-methoxybenzamido)phenyl)amino)-1H-pyrazole-4-carboxamide] | > 1000 | B (B represents 10<Kd(JAK2): Kd (RCK)<100) | 100 to 1000 | > 1000 | A (A represents Kd (JAK3): Kd (RCK)>100)
NC(=O)c1c(Nc2ccc(N3CCSCC3)cc2)n[nH]c1NCc1ccc(O)cc1 [reference compound] | < 50 | D (D represents Kd(JAK2): Kd (RCK)<1) | < 50 | < 50 | C (C represents 1<Kd (JAK3): Kd (RCK)<10)
Cc1cc(CNc2[nH]nc(Nc3ccc(N4CCC(C)CC4)cc3)c2C(N)=O)cc(C)c1O [Compound 63, 5-((4-hydroxy-3,5-dimethylbenzyl)amino)-3-((4-(4-methylpiperidin-1-yl)phenyl)amino)-1H-pyrazole-4-carboxamide] | > 1000 | B (B represents 10<Kd(JAK2): Kd (RCK)<100) | 100 to 1000 | > 1000 | B (B represents 10<Kd (JAK3): Kd (RCK)<100)
Cc1cc(CNc2[nH]nc(Nc3ccc(-c4cc[nH]n4)cc3)c2C(N)=O)cc(C)c1O [Compound 54, 3-((4-(1H-pyrazol-3-yl)phenyl)amino)-5-((4-hydroxy-3,5-dimethylbenzyl)amino)-1H-pyrazole-4-carboxamide] | > 1000 | B (B represents 10<Kd(JAK2): Kd (RCK)<100) | 100 to 1000 | > 1000 | B (B represents 10<Kd (JAK3): Kd (RCK)<100)
NC(=O)c1c(Nc2ccc(N3CCCCC3)cc2)n[nH]c1NCc1ccc(O)cc1 [reference compound] | < 50 | C (C represents 1<Kd (JAK2): Kd (RCK)<10) | < 50 | < 50 | C (C represents 1<Kd (JAK3): Kd (RCK)<10)
NC(=O)c1c(Nc2ccc(N3CCN(C(=O)N4CCCC4)CC3)cc2)n[nH]c1NCc1ccc(O)cc1 [reference compound] | < 50 | D (D represents Kd(JAK2): Kd (RCK)<1) | < 50 | < 50 | C (C represents 1<Kd (JAK3): Kd (RCK)<10)
CN(C)c1ccc(Nc2n[nH]c(NCc3ccc(O)cc3)c2C(N)=O)cc1 [reference compound] | < 50 | D (D represents Kd(JAK2): Kd (RCK)<1) | 100 to 1000 | 100 to 1000 | C (C represents 1<Kd (JAK3): Kd (RCK)<10)
Cc1cc(CNc2[nH]nc(Nc3ccc(N4CCN(C(C)C)CC4)c(Cl)c3)c2C(N)=O)cc(C)c1O [Compound 17, 3-((3-chloro-4-(4-isopropylpiperazin-1-yl)phenyl)amino)-5-((4-hydroxy-3,5-dimethylbenzyl)amino)-1H-pyrazole-4-carboxamide] | 100 to 1000 | A (A represents Kd (JAK2): Kd (RCK)>100) | < 50 | 100 to 1000 | A (A represents Kd (JAK3): Kd (RCK)>100)
NC(=O)c1c(Nc2ccc(N3CCN(C(=O)N4CCOCC4)CC3)cc2)n[nH]c1NCc1ccc(O)cc1 [reference compound] | < 50 | D (D represents Kd(JAK2): Kd (RCK)<1) | < 50 | < 50 | C (C represents 1<Kd (JAK3): Kd (RCK)<10)
NC(=O)c1c(Nc2ccc(-c3ccccc3)cc2)n[nH]c1NCc1ccc(O)cc1 [reference compound] | < 50 | D (D represents Kd(JAK2): Kd (RCK)<1) | 50 to 100 | 50 to 100 | C (C represents 1<Kd (JAK3): Kd (RCK)<10)
Cc1cc(CNc2[nH]nc(Nc3ccc(N(C)C)cc3)c2C(N)=O)cc(C)c1O [Compound 50, 3-((4-(dimethylamino)phenyl)amino)-5-((4-hydroxy-3,5-dimethylbenzyl)amino)-1H-pyrazole-4-carboxamide] | > 1000 | C (C represents 1<Kd (JAK2): Kd (RCK)<10) | 100 to 1000 | > 1000 | C (C represents 1<Kd (JAK3): Kd (RCK)<10)
Cc1cc(Nc2n[nH]c(NCc3ccc(O)cc3)c2C(N)=O)cnc1N1CCN(C)CC1 [reference compound] | < 50 | D (D represents Kd(JAK2): Kd (RCK)<1) | < 50 | < 50 | C (C represents 1<Kd (JAK3): Kd (RCK)<10)
NC(=O)c1c(Nc2ccc(NC(=O)c3ccc(F)cc3)cc2)n[nH]c1NCc1ccc(O)cc1 [reference compound] | < 50 | C (C represents 1<Kd (JAK2): Kd (RCK)<10) | < 50 | < 50 | C (C represents 1<Kd (JAK3): Kd (RCK)<10)
Cc1cc(Nc2n[nH]c(NCc3ccc(O)cc3)c2C(N)=O)ccc1N1CCN(C)CC1 [reference compound] | < 50 | C (C represents 1<Kd (JAK2): Kd (RCK)<10) | < 50 | < 50 | C (C represents 1<Kd (JAK3): Kd (RCK)<10)
Cc1cc(CNc2[nH]nc(Nc3ccc(N4CCOCC4)cn3)c2C(N)=O)cc(C)c1O [Compound 11, 5-((4-hydroxy-3,5-dimethylbenzyl)amino)-3-((5-morpholinopyridin-2-yl)amino)-1H-pyrazole-4-carboxamide] | 100 to 1000 | C (C represents 1<Kd (JAK2): Kd (RCK)<10) | 50 to 100 | > 1000 | B (B represents 10<Kd (JAK3): Kd (RCK)<100)
Cc1cc(CNc2[nH]nc(Nc3cnc(N4CCOCC4)c(Cl)c3)c2C(N)=O)cc(C)c1O [Compound 5, 3-((5-chloro-6-morpholinopyridin-3-yl)amino)-5-((4-hydroxy-3,5-dimethylbenzyl)amino)-1H-pyrazole-4-carboxamide] | > 1000 | B (B represents 10<Kd(JAK2): Kd (RCK)<100) | 100 to 1000 | > 1000 | B (B represents 10<Kd (JAK3): Kd (RCK)<100)
NC(=O)c1c(Nc2cnc(N3CCOCC3)c(Cl)c2)n[nH]c1NCc1ccc(O)cc1 [reference compound] | < 50 | C (C represents 1<Kd (JAK2): Kd (RCK)<10) | < 50 | 50 to 100 | C (C represents 1<Kd (JAK3): Kd (RCK)<10)
Cc1cc(Nc2n[nH]c(NCc3cc(C)c(O)c(C)c3)c2C(N)=O)ccc1N1CCCCC1 [Compound 30, 5-((4-hydroxy-3,5-dimethylbenzyl)amino)-3-((3-methyl-4-(piperidin-1-yl)phenyl)amino)-1H-pyrazole-4-carboxamide] | > 1000 | B (B represents 10<Kd(JAK2): Kd (RCK)<100) | 50 to 100 | > 1000 | B (B represents 10<Kd (JAK3): Kd (RCK)<100)
CC(C)N1CCN(c2ccc(Nc3n[nH]c(NCc4ccc(O)cc4)c3C(N)=O)cc2)CC1 [reference compound] | < 50 | C (C represents 1<Kd (JAK2): Kd (RCK)<10) | < 50 | 50 to 100 | B (B represents 10<Kd (JAK3): Kd (RCK)<100)
